Ends that are not written are not given here. Peptide text beside a SMILES is read from it.
How the values were obtained:
C57BL/6 mice = assay: Delayed type hypersensitivity (DTH) response to oxazolone; format: in vivo, mouse; conditions: oxazolone sensitization day 0, elicitation day 6, reading day 7; peptide 200 μg daily
Protocol: DTH model—C57BL/6 mice were painted at their abdomen with oxazolone solution (sensitization). On day 6, the right ear of each mouse was painted with the same hapten, oxazolone (elicitation), to generate delayed type hypersensitivity (DTH) response. The differences in thickness between the right and the left ears, indicating DTH development, were determined by microcaliper 24 hours later. DTH induction indicates a normal immune response. For additional details see Weiss et al., (2000) Proc. Natl. Acad. Sci. USA. 97, 285-290.
Treatment protocol—PBS and 5-mer peptide (SEQ ID NO: 1) at a dose of 200 μg was administered one day before the sensitization and then every day during the sensitization period (7 days).

[1] = system: CIA mice on C57BL/6 background; assay: ELISA for neutralizing anti-peptide antibodies in serum of treated CIA mice; format: in vivo, mouse; conditions: 70 μg per injection i.p., 10 consecutive days; ELISA plates coated with peptide
Protocol: (§1) Treatment protocol—PBS, or 5-mer RA peptide (SEQ ID NO: 1) at a dose of 70 μg per injection were administered i.p to CIA mice on C57BL/6 background for 10 consecutive days. In all groups first injection was given at the onset of disease as determined by paw swelling.
ELISA—96 wells ELISA plates were coated with 5-mer RA peptide (SEQ ID NO: 1), collagen or immunoglobulin (positive control). Serum from CIA mice treated with PBS or the 5-mer RA peptide was added to the coated plates and the presence of neutralizing antibodies against collagen or the RA peptide was detected with anti-immunoglobulin+detection system. The plate wells were coated with 1 mg/ml peptide or protein. Mouse serum was added to the plate wells for 15 hours in cold temperature. The detection system included HRP-anti-mouse IgG and TMB (Bako) substrate. Plates were analysed using an ELISA reader at a wave length of 450 nm.

[2] = system: fibroblasts from the inflammatory joint of an RA patient; format: cell-based, human
Protocol: Cells—Fibroblasts from the inflammatory joint of an RA patient were cultured and maintained as shown in Bendersky et al, J Immunol.; 188:4349-59, 2012. A quantity of 20,000 cells was added to each one of the 96 well plates with the indicated concentrations of peptide, serum amyloid A or α-lactalbumin.
MTT assay—MTT assay was effected as shown in Madhyastha et al. (2015) J Clin Diagn Res.; 9 :ZCO5-8.
An in-vitro model was developed as a tool to evaluate the biological activity of the generated RA peptides. To this end, fibroblasts from the inflammatory joint of an RA patient were incubated in-vitro and the effect of the peptides on cell survival was evaluated by a MTT assay.

[3] = system: CIA mice on DBA/1 background; assay: Paw swelling in collagen-induced arthritis (CIA) mice on DBA/1 background; format: in vivo, mouse; conditions: for joint inflammation (paw swelling) vs PBS / hind paws that remained healthy (paw swelling less than 2 mm): 200 μg per injection i.p.; for joint inflammation (paw swelling) vs PBS: daily for 9-10 days from onset of disease; for paw swelling response vs PBS: 4 times within 6 days from onset of disease; for hind paws that remained healthy (paw swelling less than 2 mm): daily for 9 days, CIA DBA/1 mice
Protocol: (§2) Mice—Collagen-induced arthritis (CIA) was generated in DBA/1 or C57BL mice by injection of type II collagen as described in Nedvetzki et al., PNAS 101, 18081-18086, 2004.
as §1, with “protocol—PBS, or the 9-mer RA peptide (SEQ ID NO: 3) at a dose of 25 μg, 100 μg or 150 μg per injection was administered i.p to CIA mice for 4 times within 6 days (see Table 3 below). PBS (n=7),” for “protocol—PBS,”, “1, n=7)” for “1)”
(§3) Evaluation of joint inflammation—Inflammation was evaluated by the paw swelling response. Paw swelling was measured by micro caliber. Paw swelling at range of 2.1-2.3 mm was considered “onset of disease” and the starting point for injection of the peptides. […] All measurements were performed under blind manner (For additional details see Nedvetzki, et al., (2004) PNAS 101, 18081-18086).
(§4) Treatment protocol—PBS, or the tested peptides [Ac-TRMTADVDR-NH2 (SEQ ID NO: 6), Ac-MTADVDR-NH2 (SEQ ID NO: 5), Ac-MTADV-NH2 (SEQ ID NO: 4) and scrambled Ac-TMDVADR-NH2 (SEQ ID NO: 7)] at doses of 70 or 200 μg per injection were administered i.p to […] for 9-10 consecutive days (see Tables 4-7 below). As a non-specific control, several mice were administered I.P. with Dexamethsone (Dex) at a dose of 50 μg, following the same protocol. In all groups first injection was given at the onset of disease as determined by paw swelling.
Evaluation of joint inflammation—As described in Example 2 above. Paw swelling of less than 2 mm was considered healthy.

[4] = system: CIA mice on C57BL/6 background; assay: Paw/footpad swelling in CIA mice on C57BL/6 background; format: in vivo, mouse; conditions: 10 consecutive days; for joint inflammation (paw swelling) vs PBS: 70 μg per injection i.p.
Protocol: as §2, §3, §4
Treatment protocol—PBS, or the tested peptide [Ac-MTADV-NH2 (SEQ ID NO: 4)] at doses of 10, 25, 70, 200 or 600 μg per injection were administered i.p to CIA mice for 10 consecutive days (see Tables 8-9 below). In all groups first injection was given at the onset of disease as determined by paw swelling.
To evaluate the optimal anti-inflammatory therapeutic dose of the 5-mer RA peptide, several different doses of the protected peptide (SEQ ID NO: 4) were administered to CIA mice on C57BL/6 background and joint inflammation was determined by footpad swelling measurements (electronic automatic measurements of the volume of the footpad, based on Archimedes observation).

In the case of CSCC[C@H](N)C(=O)N[C@H](C(=O)N[C@@H](C)C(=O)N[C@@H](CC(=O)O)C(=O)N[C@H](C(=O)O)C(C)C)[C@@H](C)O [5-mer RA peptide, MTADV] (H-MTADV-OH), the “DTH response (difference in thickness between right and left ears) vs PBS” value (C57BL/6 mice) is reported as “did not affect the DTH response”, the “neutralizing antibodies to the peptide in serum” value [1] is reported as “no neutralizing antibodies” and the “in-vitro maximal suppressive effect on cell survival” value [2] is reported as 60%.

In the case of “Ac-MTADV-NH2 [5-mer protected RA peptide]”, the “joint inflammation (paw swelling) vs PBS” value [3] is reported as “reduces joint inflammation”, the “joint inflammation (footpad swelling) vs PBS” value ([4]; 10 μg per injection i.p.) is reported as “did not induce a significant anti-inflammatory effect” and the “joint inflammation (footpad swelling) vs PBS” value ([4]; 25 μg per injection i.p.) is reported as “did not induce a significant anti-inflammatory effect”. For the same molecule, the “joint inflammation (paw swelling) vs PBS” value [4] was “reduced the joint inflammation”, the “joint inflammation (paw swelling) vs PBS” value ([4]; listed as 5-mer protected peptide) was “significantly inhibit joint inflammation” and the “joint inflammation (footpad swelling) vs PBS” value ([4]; 200 μg per injection i.p.) was “reduced the joint inflammation”. The “joint inflammation (footpad swelling) vs PBS” value ([4]; 600 μg per injection i.p.) was “reduced the joint inflammation”, the “optimal and lowest dose for CIA inhibition” value ([4]; doses 10-600 μg i.p.) was 70 μg per injection and the “suppressive effect on cell survival compared to the 5-mer RA peptide (SEQ ID NO: 1)” value ([2]; MTT assay) was “improved the suppressive effect”.

With “TRMTADVDR (not fully specified (C-terminus)) [9-mer RA peptide]” the “paw swelling response vs PBS” value ([3]; 25 μg per injection i.p.) was “did not show significant difference in paw swelling response”, the “paw swelling response vs PBS” value ([3]; 100 μg per injection i.p.) was “did not show significant difference in paw swelling response” and the “paw swelling response vs PBS” value ([3]; 150 μg per injection i.p.) was “significant reduction in paw swelling”.

“Ac-TRMTADVDR-NH2 [9-mer protected RA peptide]” was tested, and the “joint inflammation (paw swelling) vs PBS” value [3] was “reduce joint inflammation”.

Ac-TMDVADR-NH2 [reference compound] was tested, and the “joint inflammation (paw swelling) vs PBS” value [3] was “no effect on footpad swelling” and the “hind paws that remained healthy (paw swelling less than 2 mm)” value [3] was 33%.

“Ac-MTADVDR-NH2 [7-mer protected RA peptide]” was tested, and the “joint inflammation (paw swelling) vs PBS” value [3] was “reduces joint inflammation” and the “hind paws that remained healthy (paw swelling less than 2 mm)” value [3] was “more than 60%”.

B1: Serum Amyloid A (SAA): Serum Amyloid A protein added to the fibroblast culture in combination with the 5-mer peptide (protein)
chain: RSFFSFLGEAFDGARDMWRAYSDMREANYIGSDKYFHARGNYDAAKRGPGGAWAAEVITDARENIQRFFGHGAEDSLADQAANEWGRSGKDPNHFRPAGLPEKY
In the case of B1, the “effect on the 5-mer peptide's inhibition of cell survival” value ([2]; 50 μg/ml added in combination with the 5-mer peptide) is reported as “prevents this inhibition” and the “effect on the 5-mer peptide's reduction of fibroblast survival” value ([2]; escalating concentrations, 5-mer peptide constant at 25 μg/ml) is reported as “gradually prevented this reduction”.

Reference: US11560417B2, “Isolated polypeptides of CD44 and uses thereof” (Yissum Research Development Company of the Hebrew …, priority 2014, dated 2023)
